Laboratory results from patent publication US8716242B2, “β-hairpin peptidomimetics” (priority 2009, dated 2014).
Numbered stars: 1 amine (or outer) side, 2 acyl side, 3 side chain; on linkers, the order of the positions; unused ones are H or OH. Bridge positions count the residues as written; N and C are the ends. Square brackets hold non-standard residues; d marks the D form. Side chains are listed from the residue outwards. Peptide text beside a SMILES is read from it. * marks the point of attachment. Cholyl = C[C@H](CCC(=O)*)[C@H]1CC[C@H]2[C@@H]3[C@H](O)C[C@@H]4C[C@H](O)CC[C@]4(C)[C@H]3C[C@H](O)[C@]12C; Adamantane1carbonyl = O=C(C12CC3CC(CC(C3)C1)C2)*; Hexadecanoyl(16-OH) = O=C(CCCCCCCCCCCCCCCO)*; X1 = O=C([C@H]1C[C@H](N[*:3])CN1[*:1])[*:2]; NH(1-Adamantyl) = C1C2CC3CC1CC(N*)(C2)C3; Gly(decyl) = CCCCCCCCCC[C@H](N)C(=O)O; Myristoyl = CCCCCCCCCCCCCC(=O)*; Octanoyl = CCCCCCCC(=O)*; Dab = NCC[C@H](N)C(=O)O

What was measured:
[1] = Cytotoxicity, MTT reduction assay, HELA cells; format: cell-based; settings: 48 h, 12.5-50 μM
Description: (§1) Mouse pre-B cells were cultured in RPMI1640 plus 5% FBS, antibiotic/antimycotic, non essential amino acid, 50 μM β-mercaptoethanol and 1 mM natrium pyruvate. HELA cells were maintained in RPMI1640 plus 10% FBS, pen/strept and 2 mM L-glutamine. Cos-7 cells were grown in DMEM medium with […] glucose supplemented with 10% FCS, pen/strept and 2 mM L-glutamine. All cell lines were grown at 37° C. at 5% CO2. Cell media, media supplements, PBS-buffer, HEPES, antibiotic/antimycotic, pen/strept, non essential amino acid, L-glutamine, β-mercaptoethanol and sera were purchased from Gibco (Pailsey, UK). All fine chemicals were supplied by Merck (Darmstadt, Germany).
(§2) The cytotoxicity of the peptides to HELA cells (Acc57) and COS-7 cells (CRL-1651) was determined using the MTT reduction assay (T. Mossman, J. Immunol. Meth. 1983, 65, 55-63; M. V. Berridge, A. S. Tan, Arch. Biochem. Biophys. 1993, 303, 474-482). Briefly, the method was as follows: 4000 HELA cells/well and 3400 COS-7 cells/well were seeded and grown in 96-well microtiter plates for 24 h at 37° C. at 5% CO2. Thereafter, time zero (Tz) was determined by MTT reduction (see below). The supernatant of the remaining wells was discarded, and fresh medium and compounds in serial dilutions (12.5, 25 and 50 μM, triplicates) were pipetted into the wells. After incubation of the cells for 48 h at 37° C. at 5% CO2 the supernatant was discarded again and 100 μL MTT reagent (0.5 mg/mL in RPMI1640 and DMEM, respectively)/well was added. Following incubation at 37° C. for 2-4 h the media were aspirated and the cells were spiked (100 μL isopropanol/well). The absorbance of the solubilized formazan was measured at 595 nm (OD595peptide). For each concentration averages were calculated from triplicates. The percentage of growth was calculated as follows: (OD595peptide-OD595Tz-OD595Empty well)/(OD595Tz-OD595Empty well)×100%. The GI50 (Growth Inhibition) concentrations were calculated for each peptide by using a trend line function for the concentrations (50, 25, 12.5 and 0 μM), the corresponding percentages and the value 50, (=TREND (C50: C0, %50:%0,50).

[2] = Cytotoxicity, MTT reduction assay, COS-7 cells; format: cell-based; settings: 48 h, 12.5-50 μM
Description: as §1, §2

[3] = Plasma stability in human plasma; format: in vitro ADME; settings: human plasma, 37° C.; for remaining at 24 h, 10 μM: 1440 min, read-out: human pl. cpd left at 1440 min; for half-life / human pl. T1/2: up to 1440 min; for half-life: read-out: human pl. T1/2
Description: (§3) Percent hemolysis was calculated as follows: (OD540peptide/OD540H2O)×100%. 2.6. Plasma Stability
(§4) The stability of the peptides in human and mouse plasma was determined by applying the following method: 346.5 μL/deep well of freshly thawed human plasma (Basler Blutspendedienst) and mouse plasma (Harlan Sera-Lab, UK), respectively, were spiked with 3.5 μL/well of compound dissolved in DMSO/H2O ([…] [v/v], 1 mM, triplicate) and incubated at 37° C. At t=0, 15, 30, 60, 120, 240 and 1440 min aliquots of 50 μL were transferred to filtration plate wells containing 150 μL/well of 2% formic acid in acetonitrile. Following shaking for 2 min the occurred suspensions were filtrated by vacuum and 50 μL of each filtrate was mixed with 100 μL of 1% formic acid in H2O. After transfer to a propylene microtiter plate, the filtrates were analyzed by LC/MS as follows: Column: Waters, XBridge C18, mobile phases: (A) water+0.1% formic acid and (B) acetonitrile/water, 95/5 (v/v)+0.1% formic acid, gradient: 5%-100% (B) in 2 minutes, electrospray ionization, MRM detection (triple quadrupole). The peak areas were determined and triplicate values are averaged. The stability is expressed in percent of the initial value at t=0. (tx/t0×100). By using the TREND function of EXCEL (Microsoft Office 2003) T1/2 were determined.

[4] = Plasma stability in mouse plasma; format: in vitro ADME; settings: mouse plasma, 37° C.; for remaining at 24 h, 10 μM: 1440 min, read-out: mouse pl. cpd left at 1440 min; for mouse pl. T1/2: up to 1440 min
Description: as §3, §4

Row | SMILES | GI50 ([1]; HELA cells) | GI50 ([2]; COS-7 cells) | remaining at 24 h, 10 μM [3] | half-life [3] | remaining at 24 h, 10 μM [4] | mouse pl. T1/2 [4] | human pl. T1/2 [3] | GI50 [1] | GI50 [2]
1 | CCCCCCCCCCCCCC(=O)N[C@H]1C[C@@H]2C(=O)N[C@@H](CCN)C(=O)N[C@@H](CCCNC(=N)N)C(=O)N[C@@H](Cc3ccc(O)cc3)C(=O)N[C@H]3CSSC[C@H](NC(=O)[C@H]([C@@H](C)O)NC(=O)[C@H](Cc4c[nH]cn4)NC(=O)[C@H](Cc4ccc(O)cc4)NC(=O)[C@@H]4CCCN4C(=O)[C@H]4CCCN4C(=O)[C@H](CCC(N)=O)NC(=O)[C@H](CCC(N)=O)NC(=O)[C@H](Cc4ccc(O)cc4)NC3=O)C(=O)N[C@@H](CCCNC(=N)N)C(=O)NCC(=O)N2C1 [Ex. 4] (cyclo(YHTCRG[X1](Myristoyl)[Dab]RYCYQQ[dP]P); disulfide 4-11) | > 50 µM | > 50 µM | 66% | 5.25 h | 62% | 24 h |  |  | 
2 | CCCCCCCCCC[C@@H]1NC(=O)[C@H](Cc2ccc(O)cc2)NC(=O)[C@@H]2CSSC[C@H](NC(=O)[C@H](Cc3ccc(O)cc3)NC(=O)[C@H](Cc3c[nH]cn3)NC(=O)[C@H](Cc3ccc(O)cc3)NC(=O)[C@@H]3CCCN3C(=O)[C@H]3CCCN3C(=O)[C@H](CCCCN)NC1=O)C(=O)N[C@@H](CCCNC(=N)N)C(=O)N[C@@H](C)C(=O)N1CCC[C@@H]1C(=O)N[C@@H](CCN)C(=O)N[C@@H](CCCNC(=N)N)C(=O)N[C@@H](Cc1ccc(O)cc1)C(=O)N2 [Ex. 8] (cyclo(YHYCRA[dP][Dab]RYCY[Gly(decyl)]K[dP]P); disulfide 4-11) | > 26 µM | > 44 µM | 79% |  | 82% | 24 h | 24 h |  | 
3 | C[C@@H]1NC(=O)[C@H](CO)NC(=O)[C@@H]2CSSC[C@H](NC(=O)[C@H](Cc3ccc(O)cc3)NC(=O)[C@H](CCCNC(=N)N)NC(=O)[C@H](CCN)NC(=O)[C@H]3CCCN3C1=O)C(=O)N[C@@H](Cc1ccc(O)cc1)C(=O)N[C@@H](CCCCNC(=O)CCCCCCCCCCCCCCCO)C(=O)N[C@@H](CCCCN)C(=O)N1CCC[C@@H]1C(=O)N1CCC[C@H]1C(=O)N[C@@H](Cc1ccc(O)cc1)C(=O)N[C@@H](Cc1c[nH]cn1)C(=O)N[C@@H](Cc1ccc(O)cc1)C(=O)N2 [Ex. 21] (cyclo(YHYCSA[dP][Dab]RYCYK(Hexadecanoyl(16-OH))K[dP]P); disulfide 4-11) |  |  | 49% | 18.6 h | 63% | 24 h |  | > 50 µM | > 50 µM
4 | C[C@@H](O)[C@@H]1NC(=O)[C@H](Cc2c[nH]cn2)NC(=O)[C@H](Cc2ccc(O)cc2)NC(=O)[C@@H]2CCCN2C(=O)[C@H]2CCCN2C(=O)[C@H](CCC(N)=O)NC(=O)[C@H](CCC(=O)NC23CC4CC(CC(C4)C2)C3)NC(=O)[C@H](Cc2ccc(O)cc2)NC(=O)[C@@H]2CSSC[C@H](NC1=O)C(=O)N[C@@H](CCCNC(=N)N)C(=O)NCC(=O)N1CCC[C@@H]1C(=O)N[C@@H](CCN)C(=O)N[C@@H](CCCNC(=N)N)C(=O)N[C@@H](Cc1ccc(O)cc1)C(=O)N2 [Ex. 31] (cyclo(YHTCRG[dP][Dab]RYCYE(NH(1-Adamantyl))Q[dP]P); disulfide 4-11) |  |  | 68% |  |  |  | 24 h | > 37 µM | > 50 µM
5 | CCCCCCCC(=O)NCCCC[C@@H]1NC(=O)[C@H](CCC(N)=O)NC(=O)[C@H](Cc2ccc(O)cc2)NC(=O)[C@@H]2CSSC[C@H](NC(=O)[C@H](Cc3ccc(O)cc3)NC(=O)[C@H](CCCNC(=N)N)NC(=O)[C@H](Cc3ccc(O)cc3)NC(=O)[C@@H]3CCCN3C(=O)[C@H]3CCCN3C1=O)C(=O)N[C@@H](CO)C(=O)N[C@@H](C)C(=O)N1CCC[C@@H]1C(=O)N[C@@H](CCN)C(=O)N[C@@H](CCCNC(=N)N)C(=O)N[C@@H](Cc1ccc(O)cc1)C(=O)N2 [Ex. 32] (cyclo(YRYCSA[dP][Dab]RYCYQK(Octanoyl)[dP]P); disulfide 4-11) | > 24 µM | > 50 µM | 39% | 12.9 h |  |  |  |  | 
6 | C[C@@H]1NC(=O)[C@H](CO)NC(=O)[C@@H]2CSSC[C@H](NC(=O)[C@H](Cc3ccc(O)cc3)NC(=O)[C@H](CCCNC(=N)N)NC(=O)[C@H](CCN)NC(=O)[C@H]3CCCN3C1=O)C(=O)N[C@@H](Cc1ccc(O)cc1)C(=O)N[C@@H](CCC(N)=O)C(=O)N[C@@H](CCCCNC(=O)CNC(=O)CC[C@@H](C)[C@H]1CC[C@H]3[C@@H]4[C@H](O)C[C@@H]5C[C@H](O)CC[C@]5(C)[C@H]4C[C@H](O)[C@]13C)C(=O)N1CCC[C@@H]1C(=O)N1CCC[C@H]1C(=O)N[C@@H](Cc1ccc(O)cc1)C(=O)N[C@@H](CCCNC(=N)N)C(=O)N[C@@H](Cc1ccc(O)cc1)C(=O)N2 [Ex. 33] (cyclo(YRYCSA[dP][Dab]RYCYQK([Gly-Cholyl])[dP]P); disulfide 4-11) | > 18 µM | > 50 µM | 61% | 20.4 h |  |  |  |  | 
7 | C[C@@H](O)[C@@H]1NC(=O)[C@H](Cc2c[nH]cn2)NC(=O)[C@H](Cc2ccc(O)cc2)NC(=O)[C@@H]2CCCN2C(=O)[C@H]2CCCN2C(=O)[C@H](CCCCNC(=O)C23CC4CC(CC(C4)C2)C3)NC(=O)[C@H](CCC(N)=O)NC(=O)[C@H](Cc2ccc(O)cc2)NC(=O)[C@@H]2CSSC[C@H](NC1=O)C(=O)N[C@@H](CCCNC(=N)N)C(=O)NCC(=O)N1CCC[C@@H]1C(=O)N[C@@H](CCN)C(=O)N[C@@H](CCCNC(=N)N)C(=O)N[C@@H](Cc1ccc(O)cc1)C(=O)N2 [Ex. 35] (cyclo(YHTCRG[dP][Dab]RYCYQK(Adamantane1carbonyl)[dP]P); disulfide 4-11) |  |  | 63% |  |  |  | 24 h | > 50 µM | > 30 µM
8 | C[C@@H](O)[C@@H]1NC(=O)[C@H](Cc2c[nH]cn2)NC(=O)[C@H](Cc2ccc(O)cc2)NC(=O)[C@@H]2CCCN2C(=O)[C@H]2CCCN2C(=O)[C@H](CCC(=O)NC23CC4CC(CC(C4)C2)C3)NC(=O)[C@H](CCC(N)=O)NC(=O)[C@H](Cc2ccc(O)cc2)NC(=O)[C@@H]2CSSC[C@H](NC1=O)C(=O)N[C@@H](CCCNC(=N)N)C(=O)NCC(=O)N1CCC[C@@H]1C(=O)N[C@@H](CCN)C(=O)N[C@@H](CCCNC(=N)N)C(=O)N[C@@H](Cc1ccc(O)cc1)C(=O)N2 [Ex. 36] (cyclo(YHTCRG[dP][Dab]RYCYQE(NH(1-Adamantyl))[dP]P); disulfide 4-11) |  |  | 53% | 23.2 h |  |  |  | > 50 µM | > 50 µM
